Assay results published in US20260199242A1, “PROCESSES FOR MAKING CYCLIC LIPID IMPLANTS FOR INTRAOCULAR USE” (Allergan, Inc., priority 2006, published 2026).

Experiments:
[1] = test system: patients with age-related macular degeneration (ARMD); conditions: infusion; cited from earlier work
[2] = Potency of bimatoprost from melt-extruded implants as percent of label strength by HPLC (FIG. 1); format: physicochemical
Description: Typical extrusion temperatures for a PLGA implant are from about 85° C. to about 110° C. […] As shown by FIG. 1, five different formulation bimatoprost containing sustained release implants or drug delivery systems (“DDS”) were made. Proceeding from left to right to left along the x axis of FIG. 1 these five formulations were: The theoretical maximum potency of bimatoprost is by definition equal to the label strength (“LS”) of the bimatoprost. For example, the label strength of a one milligram implant which comprises 150 μg of bimatoprost is 150 μg. […] We determined the potency of the bimatoprost released from the implants made as a percent of their label strength using HPLC (high pressure liquid chromatography). Thus, the bimatoprost implants (each weighing about 1 mg) made were dissolved in 0.5 mL acetonitrile in a 10 mL volumetric flask and sonicated for 5 min. The flask was then filled to volume with diluent (72:18:10 water:acetonitrile:methanol); mixed well, and transferred to a HPLC vial for analysis. The HPLC analysis was performed using a Waters Alliance 2695 HPLC system, Waters Symmetry®C18 reverse-phase column 4.6 mm×75 mm, and a Waters 2487 UV detector. The conditions for analysis were flow rate of 1.5 mL/minute, UV wavelength of 210 nm, column temperature of 30° C. and mobile phase of 72:18:10 (water:acetonitrile:methanol, v/v/v) with 0.03% (w/v) trifluoroacetic acid. The injection volume of samples and standards assayed was 75 uL with a cycle time of 45 min.

[3] = lower temperature and faster rate in a low pH environment; cited from earlier work
[4] = cited from earlier work

CCCCC[C@H](O)/C=C/[C@H]1[C@H](O)CC(=O)[C@@H]1CCCCCCC(=O)O [prostaglandin E1]
visual acuity [1]: improvement in visual acuity

CCNC(=O)CCC/C=C\C[C@@H]1[C@@H](/C=C/[C@@H](O)CCc2ccccc2)[C@H](O)C[C@@H]1O [Bimatoprost]
potency of the bimatoprost released from the DDS (percent of label strength) ([2]; DDS made by melt extrusion carried out at 57° C.): more than 90% | potency of the bimatoprost released from the DDS (percent of label strength) ([2]; DDS made by melt extrusion carried out at 85° C.): about 40% | bimatoprost therapeutically inactive (loss of potency) ([2]; extrusion temperature of about 80° C. or higher): ≤ 50% | temperature above which bimatoprost can degrade if heated [3]: greater than 65 °C | solubility in water [4]: slightly soluble
